Measured values published in patent EP2121694B1, “CYCLOPROPYL FUSED INDOLOBENZAZEPINE HCV NS5B INHIBITORS” (Bristol-Myers Squibb Company, priority 2007, dated 2008).
Where two headings read alike, the source gives them in different places.

How the values were obtained:
[1] = target: T1, HCV NS5B (Hepatitis C virus genotype 1b, UniProt Q9WMX2); assay: Modified HCV NS5B RdRp enzyme assay (preincubation protocol); type: biochemical; conditions: HCV NS5B RdRp genotype 1b
T1 construct: The protein was expressed with an 18 amino acid C-terminal truncation to enhance the solubility; made in house; host or cells: E. coli BL21(DE3), pET21a vector
Method: HCV NS5B RdRp cloning, expression, and purification. The cDNA encoding the NS5B protein of HCV, genotype 1b, was cloned into the pET21a expression vector. The protein was expressed with an 18 amino acid C-terminal truncation to enhance the solubility. The E. coli competent cell line BL21(DE3) was used for expression of the protein. Cultures were grown at 37 °C for ∼ 4 hours until the cultures reached an optical density of 2.0 at 600 nm. The cultures were cooled to 20 °C and induced with 1 mM IPTG. Fresh ampicillin was added to a final concentration of 50 µg/ml and the cells were grown overnight at 20 °C.
Cell pellets (3L) were lysed for purification to yield 15-24 mgs of purified NS5B. The lysis buffer consisted of 20 mM Tris-HCl, pH 7.4, 500 mM NaCl, 0.5% triton X-100, 1 mM DTT, 1mM EDTA, 20% glycerol, 0.5 mg/ml lysozyme, 10 mM MgCl2, 15 ug/ml deoxyribonuclease I, and Complete TM protease inhibitor tablets (Roche). After addition of the lysis buffer, frozen cell pellets were resuspended using a tissue homogenizer. To reduce the viscosity of the sample, aliquots of the lysate were sonicated on ice using a microtip attached to a Branson sonicator. The sonicated lysate was centrifuged at 100,000 x g for 1hr at 4 °C and filtered through a 0.2 µm filter unit (Corning).
The protein was purified using three sequential chromatography steps: Heparin sepharose CL-6B, polyU sepharose 4B, and Hitrap SP sepharose (Pharmacia). The chromatography buffers were identical to the lysis buffer but contained no lysozyme, deoxyribonuclease I, MgCl2 or protease inhibitor and the NaCl concentration of the buffer was adjusted according to the requirements for charging the protein onto the column. Each column was eluted with a NaCl gradient which varied in length from 5-50 column volumes depending on the column type. After the final chromatography step, the resulting purity of the enzyme is >90% based on SDS-PAGE analysis. The enzyme was aliquoted and stored at -80 °C.
Standard HCV NS5B RdRp enzyme assay. HCV RdRp genotype 1b assays were run in a final volume of 60 µl in 96 well plates (Costar 3912). The assay buffer is composed of 20 mM Hepes, pH 7.5, 2.5 mM KCl, 2.5 mM MgCl2, 1 mM DTT, 1.6 U RNAse inhibitor (Promega N2515), 0.1 mg/ml BSA (Promega R3961), and 2 % glycerol. All compounds were serially diluted (3-fold) in DMSO and diluted further in water such that the final concentration of DMSO in the assay was 2%. HCV RdRp genotype 1b enzyme was used at a final concentration of 28 nM. A polyA template was used at 6 nM, and a biotinylated oligo-dT12 primer was used at 180 nM final concentration. Template was obtained commercially (Amersham 27-4110). Biotinylated primer was prepared by Sigma Genosys. 3H-UTP was used at 0.6 µCi (0.29 µM total UTP). Reactions were initiated by the addition of enzyme, incubated at 30 °C for 60 min, and stopped by adding 25 µl of 50 mM EDTA containing SPA beads (4 µg/µl, Amersham RPNQ 0007). Plates were read on a Packard Top Count NXT after >1hr incubation at room temperature.
Modified HCV NS5B RdRp enzyme assay. A modified enzyme assay was performed essentially as described for the standard enzyme assay except for the following: The biotinylated oligo dT12 primer was precaptured on streptavidin-coated SPA beads by mixing primer and beads in assay buffer and incubating at room temperature for one hour. Unbound primer was removed after centrifugation. The primer-bound beads were resuspended in 20 mM Hepes buffer, pH 7.5 and used in the assay at final concentrations of 20 nM primer and 0.67 µg/µl beads. Order of addition in the assay: enzyme (14 nM) was added to diluted compound followed by the addition of a mixture of template (0.2 nM) , 3H-UTP (0.6 µCi, 0.29 µM), and primer-bound beads, to initiate the reaction; concentrations given are final. Reactions were allowed to proceed for 4 hours at 30° C.
IC50 values for compounds were determined using seven different [I]. […]

[2] = test system: HCV replicon; assay: HCV FRET screening assay in HCV replicon cells; type: cell-based; conditions: Hepatitis C virus
Description: FRET Assay Preparation. To perform the HCV FRET screening assay, 96-well cell culture plates were used. The FRET peptide (Anaspec, Inc.) (Taliani et al., Anal. Biochem. 1996, 240, 60-67) contains a fluorescence donor, EDANS, near one end of the peptide and an acceptor, DABCYL, near the other end. The fluorescence of the peptide is quenched by […] resonance energy transfer (RET) between the donor and the acceptor, but as the NS3 protease cleaves the peptide the products are released from RET quenching and the fluorescence of the donor becomes apparent. The assay reagent was made as follows: 5X cell Luciferase cell culture lysis reagent from Promega (#E153A) diluted to 1X with dH2O, NaCl added to 150 mM final, the FRET peptide diluted to 20 uM final from a 2 mM stock.
To prepare plates, HCV replicon cells, with or without a Renilla luciferase reporter gene, were trypsinized and placed into each well of a 96-well plate with titrated test compounds added in columns 3 through 12; columns 1 and 2 contained a control compound (HCV protease inhibitor), and the bottom row contained cells without compound. The plates were then placed in a CO2 incubator at 37 °C.
Assays. Subsequent to addition of the test compounds described above (FRET Assay Preparation), at various times the plate was removed and Alamar blue solution (Trek Diagnostics, #00-100) was added per well as a measure of cellular toxicity. After reading in a Cytoflour 4000 instrument (PE Biosystems), plates were rinsed with PBS and then used for FRET assay by the addition of 30 ul of the FRET peptide assay reagent described above (FRET Assay Preparation) per well. The plate was then placed into the Cytoflour 4000 instrument which had been set to 340 excite/490 emission, automatic mode for 20 cycles and the plate read in a kinetic mode. Typically, the signal to noise using an endpoint analysis after the reads was at least three-fold. Alternatively, after Alamar blue reading, plates were rinsed with PBS, 50 ul of DMEM (high glucose) without phenol red was added and plates were then used for luciferase assay using the Promega Dual-Glo Luciferase Assay System.
Compound analysis was determined by quantification of the relative HCV replicon inhibition and the relative cytotoxicity values. To calculate cytoxicity values, the average Alamar Blue fluorescence signals from the control wells were set as 100% non-toxic. The individual signals in each of the compound test wells were then divided by the average control signal and multiplied by 100% to determine […]. To calculate the HCV replicon inhibition values, an average background value was obtained from the two wells containing the highest amount of HCV protease inhibitor at the end of the assay period. These numbers were similar to those obtained from naïve Huh-7 cells.
The background numbers were then subtracted from the average signal obtained from the control wells and this number was used as 100% activity. The individual signals in each of the compound test wells were then divided by the averaged control values after background subtraction and multiplied by 100% to determine percent activity. EC50 values for a protease inhibitor titration were calculated as the concentration which caused a 50% reduction in FRET or luciferase activity. The two numbers generated for the compound plate, percent cytoxicity and percent activity were used to determine compounds of interest for further analysis.

[3] = HCV replicon cells, FRET assay, read-out: EC50

T1 sequence (Q9WMX2 2420-2992): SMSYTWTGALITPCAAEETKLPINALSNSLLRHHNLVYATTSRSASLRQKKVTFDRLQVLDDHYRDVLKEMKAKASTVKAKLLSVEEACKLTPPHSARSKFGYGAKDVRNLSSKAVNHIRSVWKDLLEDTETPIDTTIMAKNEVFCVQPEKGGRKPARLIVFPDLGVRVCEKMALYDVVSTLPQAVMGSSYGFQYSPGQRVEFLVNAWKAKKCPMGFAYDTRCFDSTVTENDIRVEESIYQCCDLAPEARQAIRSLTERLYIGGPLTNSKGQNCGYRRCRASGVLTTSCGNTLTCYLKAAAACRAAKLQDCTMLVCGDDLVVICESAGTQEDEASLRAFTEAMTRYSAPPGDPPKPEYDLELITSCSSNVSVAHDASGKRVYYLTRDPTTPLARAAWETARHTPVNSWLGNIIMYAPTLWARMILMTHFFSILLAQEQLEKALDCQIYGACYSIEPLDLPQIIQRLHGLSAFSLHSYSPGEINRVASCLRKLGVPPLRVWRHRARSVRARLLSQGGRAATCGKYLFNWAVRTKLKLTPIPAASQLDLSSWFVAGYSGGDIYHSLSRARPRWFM

Row | SMILES | IC50 [1] | EC50 [2, 3] | EC50 [2]
1 | COc1ccc2c(c1)C1CC1(C(=O)N1CCC(C)(O)CC1)Cn1c-2c(C2CCCCC2)c2ccc(C(=O)NS(=O)(=O)N3CCC3)cc21 (stereo not drawn) | 97 to 1000 nM | 97 to 1000 nM | 
2 | COc1ccc2c(c1)C1CC1(C(=O)N1CCCN(C)CC1)Cn1c-2c(C2CCCCC2)c2ccc(C(=O)NS(=O)(=O)N(C)C)cc21 (stereo not drawn) [drawing 65] | 97 to 1000 nM |  | 
3 | COC(=O)c1ccc2c(C3CCCCC3)c3n(c2c1)CC1(C(=O)OC)CC1c1c(OC(F)(F)F)cccc1-3 (stereo not drawn) | > 10000 nM | > 120 nM | 
4 | COc1ccc2c(c1)C1CC1(C(=O)N1CCC(F)(F)CC1)Cn1c-2c(C2CCCCC2)c2ccc(C(=O)NS(=O)(=O)N(C)C)cc21 (stereo not drawn) | 97 to 1000 nM | 97 to 1000 nM | 
5 | COc1cccc2c1C1CC1(C(=O)N1C[C@@H](C)N[C@@H](C)C1)Cn1c-2c(C2CCCCC2)c2ccc(C(=O)NS(=O)(=O)N(C)C)cc21 (stereo partly drawn) | 97 to 1000 nM | 97 to 1000 nM | 
6 | COC(=O)C12CC1c1cc(O)ccc1-c1c(C3CCCCC3)c3ccc(C(=O)OC(C)(C)C)cc3n1C2 (stereo not drawn) | 1000 to 10000 nM | > 1000 nM | 
7 | CCN(CC)CCN(C)C(=O)C12CC1c1cc(OC)ccc1-c1c(C3CCCCC3)c3ccc(C(=O)NS(=O)(=O)N(C)C)cc3n1C2 (stereo not drawn) | 97 to 1000 nM | 97 to 1000 nM | 
8 | COc1ccc2c(c1)C1CC1(C(=O)N1CCCN(C)CC1)Cn1c-2c(C2CCCCC2)c2ccc(C(=O)NS(=O)(=O)N(C)C)cc21 (stereo not drawn) [drawing 58] | 97 to 1000 nM | 97 to 1000 nM | 
9 | COc1ccc2c(c1)[C@@H]1C[C@]1(C(=O)O)Cn1c-2c(C2CCCCC2)c2ccc(C(=O)NS(=O)(=O)N(C)C)cc21 | 97 to 1000 nM |  | 1000 to 10000 nM
10 | COc1cccc2c1C1CC1(C(=O)N1C[C@@H](C)O[C@@H](C)C1)Cn1c-2c(C2CCCCC2)c2ccc(C(=O)NS(=O)(=O)N(C)C)cc21 (stereo partly drawn) | 97 to 1000 nM | 97 to 1000 nM | 
11 | CCN(CC)CCN(CCN(CC)CC)C(=O)C12CC1c1cc(OC)ccc1-c1c(C3CCCCC3)c3ccc(C(=O)NS(=O)(=O)N(C)C)cc3n1C2 (stereo not drawn) | 97 to 1000 nM | 97 to 1000 nM | 
12 | COc1ccc2c(c1)C1CC1(C(=O)N1CCC(C)(O)CC1)Cn1c-2c(C2CCCCC2)c2ccc(C(=O)NS(=O)(=O)N(C)C)cc21 (stereo not drawn) | 97 to 1000 nM | 97 to 1000 nM | 
13 | COc1ccc2c(c1)C1CC1(C(=O)N1CC[C@H](N(C)C)C1)Cn1c-2c(C2CCCCC2)c2ccc(C(=O)NS(=O)(=O)C3CC3)cc21 (stereo partly drawn) | 97 to 1000 nM | 97 to 1000 nM | 
14 | COc1ccc2c(c1)C1CC1(C(=O)O)Cn1c-2c(C2CCCCC2)c2ccc(C(=O)NS(=O)(=O)C3CC3)cc21 (stereo not drawn) | 97 to 1000 nM |  | 
15 | COC(=O)C12CC1c1cc(OC)ccc1-c1c(C3CCCCC3)c3ccc(C(=O)NS(N)(=O)=O)cc3n1C2 (stereo not drawn) | 97 to 1000 nM |  | 
16 | COc1ccc2c(c1)C1CC1(C(=O)N1CCCCC1CN(C)C)Cn1c-2c(C2CCCCC2)c2ccc(C(=O)NS(=O)(=O)N(C)C)cc21 (stereo not drawn) [drawing 49] | 97 to 1000 nM | 97 to 1000 nM | 

Row | SMILES | IC50 [1] | EC50 [2, 3] | EC50 [2]
17 | COC(=O)c1ccc2c(C3CCCCC3)c3n(c2c1)CC1(C(=O)O)CC1c1c(OC(F)(F)F)cccc1-3 (stereo not drawn) | 1000 to 10000 nM |  | 
18 | COc1ccc2c(c1)[C@H]1C[C@@]1(C(=O)O)Cn1c-2c(C2CCCCC2)c2ccc(C(=O)NS(=O)(=O)N(C)C)cc21 | 97 to 1000 nM |  | 1000 to 10000 nM
19 | COc1ccc2c(c1)C1CC1(C(=O)N1CCCN(C)CC1)Cn1c-2c(C2CCCCC2)c2ccc(C(=O)NS(=O)(=O)C(C)C)cc21 (stereo not drawn) | 97 to 1000 nM | > 120 nM | 
20 | COc1ccc2c(c1)C1CC1(C(=O)N1CCCCC1CN(C)C)Cn1c-2c(C2CCCCC2)c2ccc(C(=O)NS(=O)(=O)N(C)C)cc21 (stereo not drawn) [drawing 50] | 97 to 1000 nM |  | 
21 | COc1ccc2c(c1)C1CC1(C(=O)N1CCOC[C@H]1C)Cn1c-2c(C2CCCCC2)c2ccc(C(=O)NS(=O)(=O)N(C)C)cc21 (stereo partly drawn) | 97 to 1000 nM | 97 to 1000 nM | 
22 | C[C@@H]1CN(C(=O)C23CC2c2c(OC(F)(F)F)cccc2-c2c(C4CCCCC4)c4ccc(C(=O)NS(=O)(=O)N(C)C)cc4n2C3)C[C@H](C)O1 (stereo partly drawn) | 97 to 1000 nM | 97 to 1000 nM | 
23 | CCC(CC)N1CCN(C(=O)C23CC2c2cc(OC)ccc2-c2c(C4CCCCC4)c4ccc(C(=O)NS(=O)(=O)N(C)C)cc4n2C3)CC1 (stereo not drawn) [drawing 39] | 97 to 1000 nM |  | 
24 | COC(=O)C12CC1c1cc(OC)ccc1-c1c(C3CCCCC3)c3ccc(C(=O)NS(=O)(=O)C(C)C)cc3n1C2 (stereo not drawn) | 97 to 1000 nM |  | 
25 | COc1ccc2c(c1)C1CC1(C(=O)N1CCC(C)(O)CC1)Cn1c-2c(C2CCCCC2)c2ccc(C(=O)NS(=O)(=O)C3CC3)cc21 (stereo not drawn) | 97 to 1000 nM |  | 
26 | CCC(CC)N1CCN(C(=O)C23CC2c2cc(OC)ccc2-c2c(C4CCCCC4)c4ccc(C(=O)NS(=O)(=O)N(C)C)cc4n2C3)CC1 (stereo not drawn) [drawing 37] | 97 to 1000 nM |  | 
27 | COC(=O)c1ccc2c(C3CCCCC3)c3n(c2c1)CC1(C(=O)N2CC(C)OC(C)C2)CC1c1c(OC(F)(F)F)cccc1-3 (stereo not drawn) | 1000 to 10000 nM |  | 
28 | COc1ccc2c(c1)C1CC1(C(=O)N1CCCN(C)CC1)Cn1c-2c(C2CCCCC2)c2ccc(C(=O)NS(=O)(=O)N3CCC3)cc21 (stereo not drawn) | 97 to 1000 nM |  | 
29 | COc1ccc2c(c1)C1CC1(C(=O)O)Cn1c-2c(C2CCCCC2)c2ccc(C(=O)OC(C)(C)C)cc21 (stereo not drawn) | 1000 to 10000 nM |  | 
30 | COc1ccc2c(c1)C1CC1(C(=O)O)Cn1c-2c(C2CCCCC2)c2ccc(C(=O)NS(N)(=O)=O)cc21 (stereo not drawn) | 97 to 1000 nM |  | 
31 | COc1ccc2c(c1)C1CC1(C(=O)O)Cn1c-2c(C2CCCCC2)c2ccc(C(=O)NS(=O)(=O)C(C)C)cc21 (stereo not drawn) | 97 to 1000 nM |  | 
